# Test results: patent US10173991B2, “Sulfone amide linked benzothiazole inhibitors of endothelial lipase” (BRISTOL-MYERS SQUIBB COMPANY, priority 2014, dated 2019)
# Biological target: Endothelial lipase (EL) (Homo sapiens (Human), UniProt Q9Y5X9)
# Assay: Endothelial lipase (EL) enzymatic assay with fluorescent substrate A10070 in DMPG vesicles
# Format: biochemical
# Settings: not given
# In short: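 Substrate A10070 sits in sonicated DMPG vesicles at 0.11 mole fraction. Lipase and compound preincubated 30 min, 37° C, in HEPES pH 8.0 buffer with CaCl2.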
# Chain of Endothelial lipase (EL) (Q9Y5X9 21-500): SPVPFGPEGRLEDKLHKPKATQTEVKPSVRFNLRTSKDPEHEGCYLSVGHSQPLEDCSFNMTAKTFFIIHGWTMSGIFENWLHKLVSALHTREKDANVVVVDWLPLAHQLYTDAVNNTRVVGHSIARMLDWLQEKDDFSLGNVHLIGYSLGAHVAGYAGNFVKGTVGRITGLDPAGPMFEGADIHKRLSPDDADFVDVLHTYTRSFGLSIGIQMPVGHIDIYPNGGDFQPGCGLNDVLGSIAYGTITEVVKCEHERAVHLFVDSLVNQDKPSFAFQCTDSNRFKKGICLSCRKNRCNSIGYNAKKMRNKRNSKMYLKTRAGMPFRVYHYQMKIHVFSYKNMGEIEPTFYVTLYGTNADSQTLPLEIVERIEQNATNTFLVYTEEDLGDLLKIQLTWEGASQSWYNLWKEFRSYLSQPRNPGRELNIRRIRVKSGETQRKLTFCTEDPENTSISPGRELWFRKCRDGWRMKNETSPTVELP
row,IC50,SMILES
1,12 nM,COCCS(=O)(=O)C(C(=O)NCC(=O)NC1CC1)c1nc2cc(-c3ccc(C(F)(F)F)nc3)ccc2s1 (centres unmarked) [Example 66]
2,3 nM,"CN(C)S(=O)(=O)C(C(=O)NCC(=O)NC1CC1)c1nc2c(F)cc(-c3ccc(-n4ccccc4=O)cc3)cc2s1 (centres unmarked) [Example 497, N-[(cyclopropyl-carbamoyl)methyl]-2-(dimethyl-sulfamoyl)-2-{4-fluoro-6-[4-(2-oxo-1,2-dihydropyridin-1-yl)phenyl]-1,3-benzothiazol-2-yl}acetamide]"
3,1 nM,"COCCS(=O)(=O)C(C(=O)NCC(=O)NC1CC1)c1nc2cc(F)c(-c3ccc(-n4ncc(C#N)c4N)cc3)cc2s1 (centres unmarked) [Example 585, 2-{6-[4-(5-amino-4-cyano-1H-pyrazol-1-yl)phenyl]-5-fluoro-1,3-benzothiazol-2-yl}-N-[(cyclopropyl-carbamoyl)methyl]-2-(2-methoxyethane-sulfonyl)acetamide]"
4,52 nM,"COCCS(=O)(=O)C(C(=O)NCC(=O)NC1CC1)c1nc2cc(-c3ccc(-n4cnnn4)cc3)c(F)cc2s1 (centres unmarked) [Example 132, N-[(cyclopropyl-carbamoyl)methyl]-2-{6-fluoro-5-[4-(1H-1,2,3,4-tetrazol-1-yl)phenyl]-1,3-benzothiazol-2-yl}-2-(2-methoxyethane-sulfonyl) acetamide]"
5,51 nM,"COCCS(=O)(=O)C(C(=O)NCC(=O)NC1CC1)c1nc2cc(Cl)c(-c3ccn(C)c(=O)c3)cc2s1 (centres unmarked) [Example 108, 2-[5-chloro-6-(1-methyl-2-oxo-1,2-dihydropyridin-4-yl)-1,3-benzothiazol-2-yl]-N-[(cyclopropyl-carbamoyl)methyl]-2-(2-methoxyethane-sulfonyl)acetamide]"
6,2 nM,"O=C(CNC(=O)C(c1nc2cc(F)c(-c3ccc(NC(=O)OCC(F)(F)F)cc3)cc2s1)S(=O)(=O)CCC(F)(F)F)NC1CC1 (centres unmarked) [Example 529, 2,2,2-trifluoroethyl N-{4-[2-({[(cyclopropyl-carbamoyl)methyl]carbamoyl}(3,3,3-trifluoropropane-sulfonyl)methyl)-5-fluoro-1,3-benzothiazol-6-yl]phenyl} carbamate]"
7,94 nM,"COCCS(=O)(=O)C(C(=O)NCC(=O)NC1CC1)c1nc2ccc(-c3ccnc(F)c3)cc2s1 (centres unmarked) [Example 311, N-[(cyclopropyl-carbamoyl)methyl]-2-[6-(2-fluoropyridin-4-yl)-1,3-benzothiazol-2-yl]-2-(2-methoxyethane-sulfonyl)acetamide]"
8,198 nM,"COCCS(=O)(=O)C(C(=O)NCC(=O)NCC(F)(F)F)c1nc2ccc(-c3ccc(F)nc3)cc2s1 (centres unmarked) [Example 378, 2-[6-(6-fluoropyridin-3-yl)-1,3-benzothiazol-2-yl]-2-(2-methoxyethane-sulfonyl)-N-{[(2,2,2-trifluoroethyl)carbamoyl]methyl} acetamide]"
9,2 nM,"COCCS(=O)(=O)C(C(=O)NCC(=O)NC1CC1)c1nc2cc(F)c(-c3ccc(-n4cccn4)cc3)cc2s1 (centres unmarked) [Example 139, N-[(cyclopropyl-carbamoyl)methyl]-2-{5-fluoro-6-[4-(1H-pyrazol-1-yl)phenyl]-1,3-benzothiazol-2-yl}-2-(2-methoxyethane-sulfonyl) acetamide]"
10,9 nM,"Cc1cc2nc(C(C(=O)NCC(=O)NC3CC3)S(=O)(=O)C(C)C)sc2cc1-c1ccc(C#N)nc1 (centres unmarked) [Example 254, 2-[6-(6-cyanopyridin-3-yl)-5-methyl-1,3-benzothiazol-2-yl]-N-[(cyclopropyl-carbamoyl)methyl]-2-(propane-2-sulfonyl)acetamide]"
11,6 nM,"COCCS(=O)(=O)C(C(=O)NCC(=O)NC1CC1)c1nc2cc(F)c(-c3ccc(N(C)C(=O)OC)cc3)cc2s1 (centres unmarked) [Example 32, methyl N-{4-[2-({[(cyclopropyl-carbamoyl)methyl]carbamoyl}(2-methoxyethane-sulfonyl)methyl)-5-fluoro-1,3-benzothiazol-6-yl]phenyl}-N-methylcarbamate]"
12,3 nM,"COC(=O)Nc1ccc(-c2cc3sc(C(C(=O)NCC(=O)NC4CC4)S(=O)(=O)CC4CC4)nc3cc2F)cc1 (centres unmarked) [Example 2, methyl N-{4-[2-({[(cyclopropyl-carbamoyl)methyl]carbamoyl} (cyclopropyl-methanesulfonyl)methyl)-5-fluoro-1,3-benzothiazol-6-yl]phenyl} carbamate]"
13,299 nM,"O=C(CNC(=O)C(c1nc2ccc(-c3ccc(F)nc3)cc2s1)S(=O)(=O)N1CCOCC1)NC1CC1 (centres unmarked) [Example 483, N-[(cyclopropyl-carbamoyl)methyl]-2-[6-(6-fluoropyridin-3-yl)-1,3-benzothiazol-2-yl]-2-(morpholine-4-sulfonyl)acetamide]"
14,14 nM,"COC(=O)N(C)c1ccc(-c2ccc3nc(C(C(=O)NCC(=O)NC4CC4)S(C)(=O)=O)sc3c2)cc1 (centres unmarked) [Example 23, methyl N-{4-[2-({[(cyclopropyl-carbamoyl)methyl]carbamoyl} (methanesulfonyl)methyl)-1,3-benzothiazol-6-yl]phenyl}-N-methylcarbamate]"
15,1 nM,"Cc1nc2cc(-c3cc4sc(C(C(=O)NCC(=O)NC5CC5)S(C)(=O)=O)nc4cc3F)ccc2s1 (centres unmarked) [Example 248, N-[(cyclopropyl-carbamoyl)methyl]-2-[5-fluoro-6-(2-methyl-1,3-benzothiazol-5-yl)-1,3-benzothiazol-2-yl]-2-methanesulfonyl-acetamide]"
16,39 nM,"O=C(CNC(=O)C(c1nc2ccc(-c3ccc4c(c3)C(=O)NC4)cc2s1)S(=O)(=O)c1ccc(F)cc1)NC1CC1 (centres unmarked) [Example 451, N-[(cyclopropyl-carbamoyl)methyl]-2-(4-fluorobenzene-sulfonyl)-2-[6-(3-oxo-2,3-dihydro-1H-isoindol-5-yl)-1,3-benzothiazol-2-yl}acetamide]"
17,23 nM,"CS(=O)(=O)C(C(=O)NCC(=O)NC1CC1)c1nc2cc(F)c(-c3cncc(F)c3)cc2s1 (centres unmarked) [Example 323, N-[(cyclopropyl-carbamoyl)methyl]-2-[5-fluoro-6-(5-fluoropyridin-3-yl)-1,3-benzothiazol-2-yl]-2-methanesulfonyl-acetamide]"
18,4 nM,"COC(=O)N(C)c1ccc(-c2cc3sc(C(C(=O)NCC(=O)NC4CC4)S(=O)(=O)CCC(F)(F)F)nc3cc2F)cc1 (centres unmarked) [Example 33, methyl N-{4-[2-({[(cyclopropyl-carbamoyl)methyl]carbamoyl}(3,3,3-trifluoropropane-sulfonyl)methyl)-5-fluoro-1,3-benzothiazol-6-yl]phenyl}-N-methylcarbamate]"
19,52 nM,"CN(C)S(=O)(=O)C(C(=O)NCC(=O)NC1CC1)c1nc2cc(F)c(-c3cccc(-n4cccn4)c3)cc2s1 (centres unmarked) [Example 506, N-[(cyclopropyl-carbamoyl)methyl]-2-(dimethyl-sulfamoyl)-2-{5-fluoro-6-[3-(1H-pyrazol-1-yl)phenyl]-1,3-benzothiazol-2-yl} acetamide]"
20,12 nM,COCCS(=O)(=O)C(C(=O)NCC(=O)NC1CC1)c1nc2cc(F)c(-c3cnc(OC)c(N)c3)cc2s1 (centres unmarked) [Example 140]
21,293 nM,"COCCS(=O)(=O)C(C(=O)NCC(=O)NC1CC1)c1nc2cc(-c3cncnc3C(C)C)ccc2s1 (centres unmarked) [Example 86, N-[(cyclopropyl-carbamoyl)methyl]-2-(2-methoxyethane-sulfonyl)-2-{5-[4-(propan-2-yl)pyrimidin-5-yl]-1,3-benzothiazol-2-yl}acetamide]"
22,14 nM,"COCCS(=O)(=O)C(C(=O)NCC(=O)NC1(C)CC1)c1nc2cc(-c3ccc(F)nc3)ccc2s1 (centres unmarked) [Example 392, 2-[5-(6-fluoropyridin-3-yl)-1,3-benzothiazol-2-yl]-2-(2-methoxyethane-sulfonyl)-N-{[(1-methylcyclopropyl)carbamoyl]methyl} acetamide]"
23,23 nM,"COCCS(=O)(=O)C(C(=O)NCC(=O)NC1CC1)c1nc2cc(F)c(-c3ccnn3C)cc2s1 (centres unmarked) [Example 167, N-[(cyclopropyl-carbamoyl)methyl]-2-[5-fluoro-6-(1-methyl-1H-pyrazol-5-yl)-1,3-benzothiazol-2-yl]-2-(2-methoxyethane-sulfonyl) acetamide]"
24,2 nM,"CC(C)OC(=O)Nc1ccc(-c2cc3sc(C(C(=O)NCC(=O)NC4CC4)S(=O)(=O)C4CC4)nc3cc2F)cc1 (centres unmarked) [Example 542, propan-2-yl N-(4-{2-[(cyclopropane-sulfonyl) ({[(cyclopropyl-carbamoyl)methyl]carbamoyl})methyl]-5-fluoro-1,3-benzothiazol-6-yl}phenyl) carbamate]"
25,2 nM,"COCCS(=O)(=O)C(C(=O)NCC(=O)NC1CC1)c1nc2cc(-c3cccc(C(=O)OC(C)(C)C)c3)ccc2s1 (centres unmarked) [Example 134, tert-butyl 3-[2-({[(cyclopropyl-carbamoyl)methyl]carbamoyl}(2-methoxyethane-sulfonyl)methyl)-1,3-benzothiazol-5-yl]benzoate]"
26,9 nM,"COCCS(=O)(=O)C(C(=O)NCC(=O)NC1CC1)c1nc2ccc(-c3ccc4c(c3)CNC4=O)cc2s1 (centres unmarked) [Example 340, N-[(cyclopropyl-carbamoyl)methyl]-2-(2-methoxyethane-sulfonyl)-2-[6-(1-oxo-2,3-dihydro-1H-isoindol-5-yl)-1,3-benzothiazol-2-yl]acetamide]"
27,5 nM,"COCCS(=O)(=O)C(C(=O)NCC(=O)NC1CC1)c1nc2cc(F)c(-c3ccc4cnn(C)c4c3)cc2s1 (centres unmarked) [Example 198, N-[(cyclopropyl-carbamoyl)methyl]-2-[5-fluoro-6-(1-methyl-1H-indazol-6-yl)-1,3-benzothiazol-2-yl]-2-(2-methoxyethane-sulfonyl) acetamide]"
28,5 nM,"COCCOC(=O)Nc1ccc(-c2cc3sc(C(C(=O)NCC(=O)NC4CC4)S(=O)(=O)CCOC)nc3cc2F)cn1 (centres unmarked) [Example 37, 2-methoxyethyl N-{5-[2-({[(cyclopropyl-carbamoyl)methyl]carbamoyl}(2-methoxyethane-sulfonyl)methyl)-5-fluoro-1,3-benzothiazol-6-yl]pyridin-2-yl} carbamate]"

# Same assay, conditions: EL from conditioned media of HT-1080 cells; 30 min preincubation at 37° C.
row,IC50,SMILES
1,6 nM,"CS(=O)(=O)C(C(=O)NCC(=O)NC1CC1)c1nc2cc(F)c(-c3ccc(-n4ccnc4)cc3)cc2s1 (centres unmarked) [Example 579, N-[(Cyclopropylcarbamoyl)methyl]-2-{5-fluoro-6-[4-(1H-imidazol-1-yl)phenyl]-1,3-benzothiazol-2-yl}-2-methanesulfonylacetamide]"
